From patent publication US5747461A, “Synergistic administration of cyclosporine and fructose diphosphate” (priority 1994, dated 1998) come the findings set out here.

The subject of assay [1] is rat cardiac allograft. Briefly: Intra-abdominal heart transplantation, series 2 (FDP alone and with cyclosporine). It counts as in vivo. The settings on record: FDP pre and perioperative only (350 mg/kg IV, infusion 10 mg/kg IV for 90 min); n=5. The method, then: In a second series of in vivo tests, FDP alone and in conjunction with cyclosporine was tested for its ability to suppress allograft rejection and prolong survival of the transplanted heart. […] Therefore, these tests evaluated FDP in conjunction with sub-optimal doses of CSA.
In these tests, the same procedure as described above was used to transplant hearts into the abdomens of recipient animals. Unlike the earlier tests, the animals also received prophylactic antibiotic treatment following surgery, as well as daily application of Bacitracin ointment of the site of the venous catheter.
The surgical technique used in these tests was exactly the same as described in Example 2, except the animals in this series of tests received prophylactic antibiotic treatment following surgery, and daily application of Bacitracin ointment of the site of the venous catheter.
The animals were divided into the following 6 groups: […]

For assay [2], the system named is cardiac allograft (Wistar-Furth donor heart in Lewis rat). Description: Intra-abdominal heart transplantation, series 1 (graft survival, rejection grade). It is filed as in vivo. From the text: Since unwanted T cell stimulation is known to be a primary factor in causing allograft rejection, the results of the in vitro studies discussed above, showing that FDP can suppress T cell stimulation, led to a series of in vivo tests using heart transplantations in rats. These tests are described in detail in Example 2. Briefly, laboratory rats from a strain known as Lewis rats were used as recipients, while rats from a different strain known as Wistar-Furth were used as heart donors.
In the recipient animals, the native heart was not cut out and replaced by a new heart. […] This model provides a good test to determine whether the body will reject the foreign tissue, yet it avoids the extraordinary difficulties that would arise if the animal's native heart were cut out.
In the first round of tests, four treatment groups and one control group were established. The control group received no FDP. The four treatment groups were injected intravenously with 350 mg/kg of FDP 15 minutes prior to surgery, at a dosage of 350 mg/kg (i.e., 350 mg of FDP per kilogram of body weight). The treatment animals also received a 90 minute infusion of FDP during the operation, at a rate of 10 mg/kg/min. In addition to these "perioperative FDP" injections, the four treatment groups also received:
The animals were examined daily for viability. […] When the transplanted heart reached a level of non-viability, a lethal dose of pentobarbital was given, and the heart was removed, examined microscopically, and graded for rejection using the Stanford grading scale.
If a transplanted heart stopped beating prior to three days postoperatively, that animal was dropped from the study. Rats that died within five days of the operation for unknown causes were also dropped from the study. These deaths were believed to be secondary to sepsis, rather than caused by tissue rejection. Also, one animal in Group 1 died from a suture fracture; this animal was also dropped from the study.
Male Wistar-Furth rats (WF;RT-1^u) and male Lewis rats (Lew;RT-1^1)were obtained from Harlan Sprague-Dawley Animal Laboratories. Lewis rats weighing (200-224 gm) were used as recipients. WF rats weighing (200-224 gm) were used as donors.
The Lewis rats were anesthetized with a mixture of ketamine (100 mg/kg) and xylocaine (5 mg/kg) by intraperitoneal injection (IP) 1 to 2 days prior to transplantation. At this time, PE-90 tubing was placed in the internal jugular vein and brought out through the posterior aspect of the neck. The rats were placed in individual cages to prevent dislodging of the catheter. No limits were placed on water or rat chow.
The transplantation procedure was a modified version of Ono and Lindsey's microvascular technique for intra-abdominal transplantation. WF rats were anesthetized with pentobarbital (50 mg/kg). The chest and abdomen were shaved and prepped with betadine and then placed on a thermostatically controlled operating platform. […] After three minutes, the sternum and anterior chest were separated from the diaphragm and lateral ribs with heavy scissors. The chest cavity was opened and the IVC was ligated using a 5-0 silk ligature. The aorta was then dissected out and cross clamped at the level of the innominate artery. Three cc of cold cardioplegia solution (4° C.) was injected into the aortic root with a 25 gauge needle. The aorta was divided below the clamp. The pulmonary artery was dissected free and divided at its bifurcation. […] The heart was then removed and placed in iced saline with heparin (2 units/ml).
Lewis rats were then anesthetized in a similar fashion. After shaving and prepping the abdomen, a mid-line incision was made. The IVC and the infrarenal aorta were mobilized together. A curved bulldog was then used to cross clamp the vessels. The anastomosis was sewn between the […] and IVC using a 9-0 Ethicon microsurgical suture. The aorta-aorta anastomosis was then performed in a similar end-side fashion. […]

The subject of assay [3] is ischemically stored kidneys. Description: Oxygen consumption after hypothermic ischemic storage, kidney. The following applies: kidneys n=11; FDP 1 mg/ml in storage solution; 16 to 20 hours storage. Also noted: species or system rat. The method, then: (§1) Sprague Dawley rats (150-180 gm/body weight) were anesthetized with Ketamine 35 mg/kg. The liver, kidney and heart were excised and placed in 50 ml of a standard cardioplegia solution sold under the trademark ISOLYTE (which contained Na^+ -41 mEq/L, K^+ -16 mEq/L, Ca^++ -5 mEq/L, Mg^++ 3 mEq/L, Cl^- -40 mEq/L, acetate 24 mEq/L with 5% Dextrose), precooled to 4° C. To half of the storage containers, 1 mg/ml of 10% FDP was added; to the rest of the containers, a similar amount of glucose was added. The containers were placed on ice in a refrigerator. After storage for 16 to 20 hours, the organs were weighed and placed in a metabolic chamber for determination of oxygen consumption,using a Clark polarographic electrode. The total volume of the chamber was 10 ml and the composition of the medium was 8 ml phosphate buffered saline (PBS Dulbecco, Mg^++ and Ca^++ free) and 2 cc of Dextrose at a temperature of 36°±0.2° C. The organ was placed in the chamber and 100% oxygen was bubbled for 45 sec. The partial pressure of the dissolved oxygen was usually 480-560 mm Hg. Then the chamber was sealed hermetically, and O2 consumption by the organ was recorded on a strip chart recorder at a speed of 1 cm/min. Initial and final PO2 levels of medium in the chamber were measured on a Radiometer Blood Gas Analyzer Model ABL-4.

Assay [4] deals with ischemically stored hearts. Briefly: Oxygen consumption after hypothermic ischemic storage, heart. Also noted: species or system rat. The following applies: hearts n=4; FDP 1 mg/ml in storage solution; 16 to 20 hours storage. The method, then: as §1
The mark [5] stands for this setting: Group 1 perioperative FDP, Stanford grading scale.

Each structure is given as a SMILES string. Values joined by “and” are separate entries in the source; they are usually repeats but may differ in a detail not shown here. Equal entries are not always repeated.

Take `O=C(COP(=O)(O)O)[C@@H](O)[C@H](O)[C@H](O)COP(=O)(O)O` [FDP, fructose-1,6-diphosphate]: the “MST ± SEM (cardiac allograft survival)” value in assay [1] is 11.4 Days and 11.4 ± 0.74 Days. The “Mean Survival Time MST ± SE (graft)” value in assay [2] (Group 1: perioperative FDP (350 mg/kg IV + 10 mg/kg/min 90 min), no supplemental injections) is 13.5 days and 13.5 ± 1.4101 days; in assay [2] (Group 2: perioperative FDP + 350 mg/kg every 12 hours (bid), 350 mg/kg), 8.9 days and 8.9 ± 0.5154 days; in assay [2] (Group 3: perioperative FDP + 350 mg/kg every 8 hours (tid), 350 mg/kg), 10 days and 10.0 ± 0.5345 days; in assay [2] (Group 4: perioperative FDP + 350 mg/kg every 6 hours (qid), 350 mg/kg), 9.6 days and 9.4 ± 0.8004 days. Moreover, the “Rejection Grades: number of hearts graded Moderate” value was 1 in assay [2] (setting [5]); 1 in assay [2] (Group 2 FDP bid, N 8); 1 in assay [2] (Group 3 FDP tid, N 8). Moreover, the “Rejection Grades: number of hearts graded Severe/Advanced” value was found to be 8 in assay [2] (setting [5]); 6 in assay [2] (Group 2 FDP bid, N 8); 7 in assay [2] (Group 3 FDP tid, N 8); 8 in assay [2] (Group 4 FDP qid, N 8). Moreover, the “Rejection Grades: number of hearts graded Mild” value in assay [2] (Group 1 perioperative FDP, Stanford grading scale, N 11, 1 heart not evaluated) was found to be 1; in assay [2] (Group 2 FDP bid, N 8), 1. Moreover, the “rejection grades (span in the group)” value in assay [2] (Group I perioperative FDP, Stanford grading scale) is given as “mild to severe/advanced”; in assay [2] (Group II FDP every 12 hours), “mild to severe/advanced”; in assay [2] (Group III FDP every 8 hours) it was “moderate to severe/advanced”; in assay [2] (Group IV FDP every 6 hours) it was “severe/advanced”. Besides, the “post-storage O2 consumption” value in assay [3] was 74.15±4.8 mmHg O2 /min/gm; in assay [4], 68.4±3.14 mmHg O2 /min/gm.
